# Results from patent US20050026850A1, “Combination of dehydroepiandrosterone or dehydroepiandrosterone-sulfate with a tyrosine kinase inhibitor, delta opioid receptor antagonist, neurokinin receptor antagonist, or VCAM inhibitor for treatment of asthma or chronic obstructive pulmonary disease” (priority 2003, published 2005).
# Values joined by “and” are separate entries in the source; they are usually repeats but may differ in a detail not shown here. Equal entries are not always repeated.
# Tests used:
# Intracellular adenosine = test: In vivo effect on adenosine levels in various rat tissues
# [1] = Solid-state stability with and without lactose at 50° C. (DHEA formation by HPLC); format: physicochemical; settings: for DHEA % formed from Anhydrous DHEA-S / Percent DHEA formed from DHEA-S Dihydrate: Control, neat, sealed, 25° C.
# From the text: These conditions were used to stress the formulation in order to predict its long-term stability results. […] The primary degradant is DHEA. […] The materials on accelerated storage become more cohesive with time as evidenced by clumping during sample weighing for chemical analysis. […] This is a considerable disadvantage since lactose is the most commonly used inhalation excipient for dry powder formulations. Continuing with the virtually anhydrous form would mean limiting formulations to neat powder or undertaking more comprehensive safety studies to use a novel excipient.
# HT-29 SF cells [2] = test: DHEA effect on cell growth; format: cell-based, human
# HT-29 SF cells [3] = test: DHEA effect on cell cycle (flow cytometry); format: cell-based, human
# Protocol: Cells were plated at 10^5/60-mm dish in duplicate. […] Cultures were trypsinized following 0, 24, 48, or 74 hours and fixed and stained using a modification of a procedure of Bauer et al., Cancer Res. 46, 3173-3178 (1986). Briefly, cells were collected by centrifugation and resuspended in cold phosphate-buffered saline. Cells were fixed in 70% ethanol, washed, and resuspended in phosphate-buffered saline.
# After 24, 48, and 72 hours, cells were harvested, fixed in ethanol, and stained with propidium iodide, and the DNA content/cell was determined by flow cytometric analysis. The percentage of cells in G1, S, and G2M phases was calculated using the Cellfit cell cycle analysis program. S phase is marked by a quadrangle for clarity. Representative histograms from duplicate determinations are shown. The experiment was repeated three times.
# [4] = HPLC analysis of drug degradation during jet milling micronization; format: physicochemical; settings: single-pass and double-pass jet milled, HPLC peak area versus unmilled standard
# Protocol: Two vials (A; single-pass; 150 mg) and (B double-pass; 600 mg) of the micronized drug were available for determining drug degradation during jet milling micronization. […] The chromatographic peak area for the HPLC assay of the unmilled drug standard solution (10 mg/ml) gave a value of 23,427. […] The chromatographic peak areas for vials A and B were 11,979 and 11,677, respectively.
# Solubility of DHEA-S = format: physicochemical; settings: 15° C., 20 mM Na+, from Ksp by quadratic formula
# From the text: Inhalation of pure water can produce a cough stimulus. […] The temperature effect is weaker at high NaCl concentrations.
# [5] = Short-term solution stability of DHEA-S formulation; format: physicochemical; settings: 7.5 mg/mL of DHEA-S in 0.12% NaCl, RT
# Protocol: Aliquots of this solution are filled into clear glass vials and stored at RT (24-26° C.) and at 40° C. The samples are checked daily for DHEA-S content, DHEA content, and appearance. For each time point, duplicate samples are withdrawn and diluted from each vial. […] The study is stopped on day three. […] The solution should easily be stable for the day of reconstitution in a clinical trial. The following section describes the aerosol properties of this formulation.
# Nebulizer studies = settings: 0.12% NaCl (20 mM Cl−), Pari LC Plus nebulizer, 5 mL
# From the text: The collection apparatus, nebulizer, and imp actor are rinsed with mobile phase and assayed by HPLC.
# [6] = system: rat peritoneal mast cells; test: Compound 48/80 histamine release from rat peritoneal mast cells; format: cell-based; settings: for % Inhibition of Histamine Release: DHEA-S 0; for effect on compound 48/80 induced mast cell degranulation: antagonist alone, 1-100 nM
# NK1 = settings: printed under the compound name in the table, no method or source; cited from earlier work
structure (smiles),measurement,setting,value
"Nc1nc(=O)c2c([nH]1)NCC(CNc1ccc(C(=O)N[C@@H](CCC(=O)O)C(=O)O)cc1)N2C=O (mixture of isomers) [Folinic Acid, Folinic acid]","Intracellular adenosine, Brain","Intracellular adenosine; Fischer 344 rats, once daily 14 days, DHEA 300 mg/kg, methyltestosterone 120 mg/kg, folinic acid 50 mg/kg i.p., mean ± SEM, control 0.5 ± 0.04",0.72 ± 0.09 nmols/mg protein
same,effect of folinic acid administered alone on adenosine levels,"Intracellular adenosine; rats, folinic acid 50 mg/kg i.p. 14 days",increase in adenosine levels for all organs studied
same,effect of coadministration of folinic acid on steroid-mediated adenosine depletion,"Intracellular adenosine; rats, folinic acid 50 mg/kg i.p. with DHEA or methyltestosterone",completely abrogated steroid-mediated adenosine depletion
C[C@]12CC[C@H](OS(=O)(=O)[O-])CC1=CC[C@@H]1[C@@H]2CC[C@]2(C)C(=O)CC[C@@H]12.[Na+] [Anhydrous DHEA-S],DHEA % formed from Anhydrous DHEA-S at 50° C.,[1]; 1 week,9.817%
same,DHEA % formed from Anhydrous DHEA-S at 50° C.,[1]; 2 weeks,14.954%
same,DHEA % formed from Anhydrous DHEA-S at 50° C.,[1]; 4 weeks,20.171%
same,DHEA % formed from Anhydrous DHEA-S,[1]; 1 week,2.694%
same,DHEA % formed from Anhydrous DHEA-S,[1]; 2 weeks,2.370%
same,DHEA % formed from Anhydrous DHEA-S,[1]; 4 weeks,2.666%
same,DHEA % formed from Anhydrous DHEA-S,"[1]; Time (Weeks), initial value",2.774%
"C[C@]12CC[C@H](O)CC1=CC[C@@H]1[C@@H]2CC[C@]2(C)C(=O)CC[C@@H]12 [DHEA, 3β-hydroxyandrost-5-en-17-one]",exposure time after which cell number was reduced compared to controls,HT-29 SF cells [2]; 12.5 μM,72 h
same,exposure time after which cell number was reduced compared to controls,HT-29 SF cells [2]; 25 μM,48 h
same,exposure time after which cell number was reduced compared to controls,HT-29 SF cells [2]; 50 μM,48 h
same,exposure time after which cell number was reduced compared to controls,HT-29 SF cells [2]; 200 μM,24 h
same,effect on tissue adenosine,"Intracellular adenosine; rat, in vivo",multi-organ depletion of adenosine
same,cell cycle effect (summary),"HT-29 SF cells [3]; 25-200 μM, 24-72 hours",G1 block in HT-29 SF cells in a time-and dose-dependent manner
same,cell cycle distribution,"HT-29 SF cells [3]; 25 or 50 μM, 72 hours",the percentage of cells in G1 phase was increased after 72 hours
CC12CCC3C(CC=C4CC(OS(=O)(=O)[O-])CCC43C)C1CCC2=O.[Na+] (centres unmarked) [DHEA-S Dihydrate],Percent DHEA formed from DHEA-S Dihydrate at 50° C.,[1]; 1 week,0.216%
same,Percent DHEA formed from DHEA-S Dihydrate at 50° C.,[1]; 3 weeks,0.317%
same,Percent DHEA formed from DHEA-S Dihydrate at 50° C.,[1]; 4 weeks,0.374%
same,Percent DHEA formed from DHEA-S Dihydrate,[1]; 4 weeks,0.218%
same,Percent DHEA formed from DHEA-S Dihydrate,"[1]; Time (Weeks), initial value",0.213%
"C[C@]12CC[C@H](OS(=O)(=O)[O-])CC1=CC[C@@H]1[C@@H]2CC[C@]2(C)C(=O)CC[C@@H]12.[Na+] [DHEA-S, sodium dehydroepiandrostenone sulfate]",drug degradation during jet milling micronization,[4],no detectable degradation of the drug during the jet milling micronization process
same,calculated DHEA-S solution concentration,Solubility of DHEA-S,27.5 mM and 10.7 mg/mL
same,stability of nebulizer formulation,[5],stable for at least one day at RT
same,highest solution concentration that will not precipitate during nebulization,Nebulizer studies,approximately 7.5 mg/mL
"C[C@]12CCC(=O)C=C1CC[C@@H]1[C@@H]2CC[C@@]2(C)[C@H]1CC[C@]2(C)O [Methyltestosterone, methyltestosterone]","Intracellular adenosine, Brain","Intracellular adenosine; rat, in vivo",0.42 ± 0.06 and 0.32 ± 0.03
same,"Intracellular adenosine, Heart","Intracellular adenosine; rat, in vivo",8.3 ± 1.0 and 6.0 ± 0.4
same,effect on tissue adenosine,"Intracellular adenosine; rat, in vivo",multi-organ depletion of adenosine
"C=CCN1CC[C@]23c4c5ccc(O)c4O[C@H]2C(=O)CC[C@@]3(O)[C@H]1C5 [Naloxone, naloxone]",% Inhibition of Histamine Release,[6]; antagonist 1 nM,−1%
same,% Inhibition of Histamine Release,[6]; antagonist 10 nM,−1%
same,% Inhibition of Histamine Release,[6]; antagonist 100 nM,−2%
same,effect on compound 48/80 induced mast cell degranulation,[6],minimal effect (if any)
CC(C)Oc1cccc(CC(=O)N2CCC[C@](CC[N+]34CCC(c5ccccc5)(CC3)CC4)(c3ccc(Cl)c(Cl)c3)C2)c1 [SR 140333],% Inhibition of Histamine Release,[6]; antagonist 1 nM,1%
same,% Inhibition of Histamine Release,[6]; antagonist 30 nM,−8%
same,% Inhibition of Histamine Release,[6]; antagonist 100 nM,−5%
same,effect on compound 48/80 induced mast cell degranulation,[6],minimal effect (if any)
same,IC50,NK1,50 nM
